Test results from article PMC4031276 (Molecular pharmaceutics, 2013).
Like-named read-outs stand apart in the source and are kept apart here. Marks after values point to notes of the source that are not given here.

Experiments:
[1] = biological target: T1, hASBT (Homo sapiens, UniProt Q12908); test: cis-inhibition of taurocholate; details: for fold weaker inhibitory potency (Ki) than corresponding native BA: 3-hydroxyl epimerization (α to β)
T1 sequence (Q12908 1-348): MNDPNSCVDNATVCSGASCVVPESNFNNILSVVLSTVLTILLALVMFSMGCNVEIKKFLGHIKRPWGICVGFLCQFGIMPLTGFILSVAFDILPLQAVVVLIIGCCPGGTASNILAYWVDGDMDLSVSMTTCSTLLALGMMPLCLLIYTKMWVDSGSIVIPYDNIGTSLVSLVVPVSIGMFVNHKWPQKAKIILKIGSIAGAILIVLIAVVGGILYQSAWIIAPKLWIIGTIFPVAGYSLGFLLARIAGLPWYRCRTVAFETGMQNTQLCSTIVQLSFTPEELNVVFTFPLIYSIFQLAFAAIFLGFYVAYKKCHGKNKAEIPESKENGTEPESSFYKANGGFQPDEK

[2] = biological target: T1, hASBT; test: hASBT-mediated active uptake into hASBT-MDCK monolayers; format: cell-based; details: for Kt fold higher than Ki: Kt vs Ki; for Kt (μM ±SEM): Michaelis-Menten transport constant, gly-iBA 1–200 μM, 10 min, 37 °C; for fold lower Jmax than corresponding native BA: TCA-normalized Jmax; for Relative Jmax (% TCA Jmax ±SEM): gly-iBAs, normalised to TCA Jmax
[3] = system: hASBT-MDCK monolayer; details: for Pp (cm/s ± SEM x 10^6): passive permeability of gly-iBAs, sodium-free buffer
[4] = system: hASBT-MDCK monolayer; details: passive permeability of native glycine conjugates, for comparison; cited from earlier work
[5] = biological target: T1, hASBT; details: native glycine conjugates, for comparison; cited from earlier work
[6] = biological target: T1, hASBT; details: read-out: Ki (μM ±SEM); glycine conjugates of native bile acids, provided for comparison; cited from earlier work
[7] = read-out: Ki (μM ±SEM), glycine conjugates of iso-bile acids, TCA 2.5 μM, 10 min, 37 °C, pH 6.8, mean (SEM)
[8] = maximum substrate flux, mean ± SEM

## C[C@H](CCC(=O)NCC(=O)O)[C@H]1CC[C@H]2[C@@H]3CC[C@@H]4C[C@@H](O)CC[C@]4(C)[C@H]3CC[C@]12C [gly-iLCA, 3β-hydroxy-5β-cholanic acid glycine amide]
[1]
  fold weaker inhibitory potency (Ki) than corresponding native BA: 12 fold
[1]; [7]
  Ki: 5.07 µM
[2]; estimate, not determinable due to high passive permeability
  Estimate for Kt: 6.82 (4.98) μM
[2]; [8]
  Absolute Jmax: 0.017 ± 0.006 pmol/cm^2/s
[3]
  Pp (cm/s ± SEM x 10^6): 16.6 (0.8) cm/s x 10^6
[3]; vs gly-LCA
  Pp fold that of native counterpart: 20 fold

## C[C@H](CCC(=O)NCC(=O)O)[C@H]1CC[C@H]2[C@@H]3[C@H](O)C[C@@H]4C[C@H](O)CC[C@]4(C)[C@H]3CC[C@]12C [Gly-CDCA]
[4]
  Pp (cm/s ± SEM x 10^6): 0.414 (0.201) cm/s x 10^6
[5]
  Relative Jmax (% TCA Jmax ±SEM): 432 (58) % TCA Jmax
[6]
  Ki: 0.992 µM

## C[C@H](CCC(=O)O)[C@H]1CC[C@H]2[C@@H]3CC[C@@H]4C[C@@H](O)CC[C@]4(C)[C@H]3C[C@H](O)[C@]12C [iDCA, 3β, 12α-dihydroxy-5β-cholanic acid]
[1]
  Ki: 11.4 µM

## C[C@H](CCC(=O)NCC(=O)O)[C@H]1CC[C@H]2[C@@H]3CC[C@@H]4C[C@H](O)CC[C@]4(C)[C@H]3CC[C@]12C [Gly-LCA]
[4]
  Pp (cm/s ± SEM x 10^6): 0.865 (0.780) cm/s x 10^6
[5]
  Relative Jmax (% TCA Jmax ±SEM): 405 (64) % TCA Jmax
[6]
  Ki: 0.427 µM

## C[C@H](CCC(=O)O)[C@H]1CC[C@H]2[C@@H]3[C@@H](O)C[C@@H]4C[C@@H](O)CC[C@]4(C)[C@H]3CC[C@]12C [iUDCA, 3β, 7β-dihydroxy-5β-cholanic acid]
[1]
  Ki: 24.7 µM

## C[C@H](CCC(=O)NCC(=O)O)[C@H]1CC[C@H]2[C@@H]3[C@@H](O)C[C@@H]4C[C@@H](O)CC[C@]4(C)[C@H]3CC[C@]12C [gly-iUDCA, 3β,7β-dihydroxy-5β-cholanic acid glycine amide]
[1]; [7]
  Ki: 7.66 µM
[2]
  Kt fold higher than Ki: about 10 fold
  Kt (μM ±SEM): 75.3 (22.1) μM
  fold lower Jmax than corresponding native BA: 16 fold
  Relative Jmax (% TCA Jmax ±SEM): 14.0 (2.4) % TCA Jmax
[2]; [8]
  Absolute Jmax: 0.038 ± 0.006 pmol/cm^2/s
[3]
  Pp (cm/s ± SEM x 10^6): 0.690 (0.090) cm/s x 10^6

## C[C@H](CCC(=O)NCC(=O)O)[C@H]1CC[C@H]2[C@@H]3[C@H](O)C[C@@H]4C[C@@H](O)CC[C@]4(C)[C@H]3C[C@H](O)[C@]12C [gly-iCA, 3β,7α, 12α-trihydroxy-5β-cholanic acid glycine amide]
[1]; [7]
  Ki: 23.3 µM
[2]
  Kt fold higher than Ki: about 10 fold
  Kt (μM ±SEM): 163 (37) μM
  fold lower Jmax than corresponding native BA: 3 fold
  Relative Jmax (% TCA Jmax ±SEM): 61.2 (9.9) % TCA Jmax
[2]; [8]
  Absolute Jmax: 0.166 ± 0.024 pmol/cm^2/s
[3]
  Pp (cm/s ± SEM x 10^6): 0.740 (0.120) cm/s x 10^6

## C[C@H](CCC(=O)O)[C@H]1CC[C@H]2[C@@H]3[C@H](O)C[C@@H]4C[C@@H](O)CC[C@]4(C)[C@H]3CC[C@]12C [iCDCA, 3β, 7α-dihydroxy-5β-cholanic acid]
[1]
  Ki: 11.8 µM
  fold weaker inhibitory potency (Ki) than corresponding native BA: 6 fold
[1]; 7α-hydroxyl vs 7β-epimer
  fold more potent (Ki) than iUDCA: 2 fold

## C[C@H](CCC(=O)NCC(=O)O)[C@H]1CC[C@H]2[C@@H]3CC[C@@H]4C[C@H](O)CC[C@]4(C)[C@H]3C[C@H](O)[C@]12C [Gly-DCA]
[4]
  Pp (cm/s ± SEM x 10^6): 0.520 (0.162) cm/s x 10^6
[5]
  Relative Jmax (% TCA Jmax ±SEM): 349 (47) % TCA Jmax
[6]
  Ki: 3.22 µM

## C[C@H](CCC(=O)NCC(=O)O)[C@H]1CC[C@H]2[C@@H]3[C@H](O)C[C@@H]4C[C@H](O)CC[C@]4(C)[C@H]3C[C@H](O)[C@]12C [Gly-CA]
[4]
  Pp (cm/s ± SEM x 10^6): 0.220 (0.157) cm/s x 10^6
[5]
  Relative Jmax (% TCA Jmax ±SEM): 152 (24) % TCA Jmax
[6]
  Ki: 7.53 µM

## C[C@H](CCC(=O)NCC(=O)O)[C@H]1CC[C@H]2[C@@H]3CC[C@@H]4C[C@@H](O)CC[C@]4(C)[C@H]3C[C@H](O)[C@]12C [gly-iDCA, 3β, 12α-dihydroxy-5β-cholanic acid glycine amide]
[1]; [7]
  Ki: 12.4 µM
[2]
  Kt (μM ±SEM): 149 (75) ^ns μM
  Relative Jmax (% TCA Jmax ±SEM): 3.68 (1.14) ^e % TCA Jmax
[2]; [8]
  Absolute Jmax: 0.010 ± 0.003 pmol/cm^2/s
[3]
  Pp (cm/s ± SEM x 10^6): 0.730 (0.020) cm/s x 10^6

## C[C@H](CCC(=O)NCC(=O)O)[C@H]1CC[C@H]2[C@@H]3[C@H](O)C[C@@H]4C[C@@H](O)CC[C@]4(C)[C@H]3CC[C@]12C [gly-iCDCA, 3β, 7α-dihydroxy-5β-cholanic acid glycine amide]
[1]; [7]
  Ki: 4.53 µM
[2]
  Kt fold higher than Ki: about 10 fold
  Kt (μM ±SEM): 59.5 ± 8.8 µM
  fold lower Jmax than corresponding native BA: 18 fold
  Relative Jmax (% TCA Jmax ±SEM): 23.9 (2.3) % TCA Jmax
[2]; [8]
  Absolute Jmax: 0.065 ± 0.004 pmol/cm^2/s
[2]; vs gly-CDCA
  fold weaker transport affinity (Kt) than native counterpart: 90 fold
[3]
  Pp (cm/s ± SEM x 10^6): 0.058 (0.07) cm/s x 10^6

## C[C@H](CCC(=O)O)[C@H]1CC[C@H]2[C@@H]3CC[C@@H]4C[C@@H](O)CC[C@]4(C)[C@H]3CC[C@]12C [iLCA, 3β-hydroxy-5β-cholanic acid]
[1]
  Ki: 5.36 µM

## C[C@H](CCC(=O)NCCS(=O)(=O)O)[C@H]1CC[C@H]2[C@@H]3[C@H](O)C[C@@H]4C[C@H](O)CC[C@]4(C)[C@H]3C[C@H](O)[C@]12C [TCA, Taurocholic acid, reference compound]
[2]
  Absolute Jmax: c Absolute Jmax (pmol/cm^2/s) for each gly-iBA were 0.017 ± 0.006 (gly-iLCA), 0.065 ± 0.004 (gly-iCDCA), 0.010 ± 0.003 (gly-iDCA), 0.038 ± 0.006 (gly-iUDCA), and 0.166 ± 0.024 (gly-iCA) respectively. TCA Pp and Jmax were 1.56 x 10^−6 cm/s and 0.271 ± 0.020 pmol/cm^2/s, respectively.

## C[C@H](CCC(=O)NCC(=O)O)[C@H]1CC[C@H]2[C@@H]3[C@@H](O)C[C@@H]4C[C@H](O)CC[C@]4(C)[C@H]3CC[C@]12C [Gly-UDCA]
[4]
  Pp (cm/s ± SEM x 10^6): 1.01 (0.13) cm/s x 10^6
[5]
  Relative Jmax (% TCA Jmax ±SEM): 226 (36) % TCA Jmax
[6]
  Ki: 3.41 µM
